Structures are written as SMILES. Where “and” joins values, the source holds several entries; their conditions need not be identical. Identical values can stand only once.

In one assay the test system is HaCaT cells. Description: MCB test on HaCaT: intracellular GSH level after UV daylight (UV-DL) exposure. The following applies: for activity at 100 µM / inhibition at 100 µM / activity at 30 µM / inhibition at 30 µM: Homo sapiens, t=6 hours after exposure; for activity at 100 µM / activity at 30 µM: GSH-monochlorobimane fluorescence, HaCaT pretreated and exposed to UV-DL, read-out: % fluo; for inhibition at 100 µM / inhibition at 30 µM: against UV-DL-induced depletion of GSH, read-out: % protection; for inhibition at 100 µM / inhibition at 30 µM / protection against the UV-DL-induced depletion of GSH: HaCaT. It counts as cell-based, human. The procedure:
The study consisted in evaluating at the cellular level the protective effect of the reference molecule, lipoic acid, and also of lipoic acid derivatives according to the invention, with respect to the UV-DL-induced depletion of intracellular GSH.
To do this, HaCaT cells were exposed to UV daylight (UV-DL). The level of intracellular GSH was then measured, thus allowing evaluation of the possible protection afforded by the addition to the culture medium of the lipoic acid derivatives according to the invention.
UV daylight corresponds to the radiation of non-zenithal sunlight and to an average spectral illumination: it […] the radiation received by the skin of an individual in the course of a day and not solely to that corresponding to exposure to zenithal sunlight. Devices for reproducing this radiation are described in FR 2,863,356. The evaluation technique uses a fluorescent probe, monochlorobimane (MCB). […] The specificity of MCB towards GSH in our keratinocyte model (HaCaT line) was confirmed previously. Pretreatment of cells with the reference molecule, lipoic acid, for 24 hours at 1 mM affords approximately 100% protection against the UV-DL-induced depletion of GSH (see FIG. 1 showing the evaluation of the protective effect of lipoic acid at 1 mM in the MCB test on HaCaT: the measurement of the level of intracellular GSH is performed on keratinocytes that are or are not pretreated with lipoic acid at 1 mM and exposed to UV-DL at t=0, t=6 hours and t=24 hours after the exposure to UV-DL); this protection is about 83% at 500 μM and about 10% at 100 μM.
Evaluation of the protective effect of compound 1 at 100 μM and at 30 μM of compounds 9, 10, 2, 13, 14, 12, 24, 26 and 27 is performed in the MCB test on HaCaT: evaluation of the protective effect of the silyl dithiolane compounds of WO 2008/058 999 at 100 μM is also performed in the MCB test on HaCaT: the compound 5-(1,2-dithiolan-3-yl)-N-[3-(trimethylsilyl)propyl]pentanamide and the compound (trimethylsilyl)methyl 5-(1,2-dithiolan-3-yl)pentanoate. Measurement of the intracellular level of GSH is performed on keratinocytes that have or have not been pretreated with the active agents and exposed to UV-DL, t=6 hours after the exposure to UV-DL). The results are given in the graphs in FIGS. 2 and 3.

The subject of assay [1] is normal human fibroblasts (NHF). Description: Comet test: UV-A-induced DNA damage in normal human fibroblasts. It counts as cell-based. The following applies: 24 hours contact, UV-A = 30 min. From the text:
Solar UV is capable of giving rise to extensive oxidative damage in skin cells, and especially in DNA. The nucleic acids absorb the UV-B photons, thus inducing DNA damage directly. Although UV-A is not directly absorbed by DNA, it has a genotoxic action mediated by reactive oxygen species. The comet test makes it possible to quantify the UV-induced DNA damage (in this case UV-A): the breaking of strands and oxidative DNA lesions (alkali-labile sites cleaved under alkaline conditions) are detected. The principle of this test is based on the capacity of denatured and cleaved DNA fragments to migrate outside the cell nuclei, under the influence of an electric field, whereas undamaged DNA remains confined in the nucleus. The damaged DNA fragments form a trail behind the cell nucleus. The cells then take the appearance of “comets”. The “tail” of each comet is proportionately larger and stronger the greater the DNA damage incurred. (Alapetite C. et al., 1996, Int. J. Rad. Bio.; Klaude M, et al., 1996, Mut. Res.; Lehmann J. et al., 1998, Mut. Res.; Singh N P. et al., 1988, Exp. Cell Res.).
The study consisted in evaluating the photoprotective effect of two molecules with respect to UV-A-induced DNA damage. To do this, normal human fibroblasts (NHF) were placed in contact with the active agents for 24 hours. The cells were then detached, included in an agarose gel and then deposited on a microscope slide. Following the UV-A exposure (for 30 minutes), the cells were subjected to cell lysis (so as to keep intact only the genetic material), to a DNA-denaturing step and then to electrophoresis to make the damaged DNA migrate. The level of damaged DNA was measured using a fluorescence microscope combined with specialized image analysis software.

Turning to `C[Si](C)(C)CCCNC(=O)CCCCC1CCSS1` (stereo not shown) [5-(1,2-dithiolan-3-yl)-N-[3-(trimethylsilyl)propyl]pentanamide, reference compound], in the assay with HaCaT cells, the activity at 100 µM came to 75% and the inhibition at 100 µM stood at 41%.

On to `C[Si](C)(C)COC(=O)CCCCC1CCSS1` (stereo not shown) [(trimethylsilyl)methyl 5-(1,2-dithiolan-3-yl)pentanoate, reference compound], for which, in the assay on HaCaT cells, the activity at 100 µM came out at 76% and the inhibition at 100 µM was 42%.

For `CC1(C(=O)O)CSSC1` [Compound 1, 4-methyl-1,2-dithiolane-4-carboxylic acid], in the assay on HaCaT cells, the activity at 100 µM was 88% and the inhibition at 100 µM was determined as 74%. Besides, in assay [1] (1 μM), the “% of DNA damage” value worked out at 80.7%, the “% protection” value was 19.3% and the “Mean TM (DNA damage)” value was found to be 9.38. Also, the “% protection” value in assay [1] (1 μM, listed as compound 1) is 20%. In addition, in assay [1] (10 μM), the “% of DNA damage” value was found to be 69.4%, the “% protection” value is 30.6% and the “Mean TM (DNA damage)” value amounted to 8.06. Besides, the “% protection” value in assay [1] (10 μM, listed as compound 1) came out at 30%.

Take `CC1(C(N)=O)CSSC1` [Compound 2, 4-methyl-1,2-dithiolane-4-carboxamide]: in the assay on HaCaT cells, the activity at 30 µM is 92% and the inhibition at 30 µM amounted to 86%. In addition, in assay [1] (10 μM), the “% of DNA damage” value stood at 37.1%; the “% protection” value is 63% and 62.9%; the “Mean TM (DNA damage)” value worked out at 2.73.

`CCCCCCCCOC(=O)C1(C)CSSC1` [Compound 9, octyl 4-methyl-1,2-dithiolane-4-carboxylate]: in the assay on HaCaT cells, the activity at 30 µM is 80% and the inhibition at 30 µM is 66%.

As to `CCCCCCCNC(=O)C1(C)CSSC1` [Compound 10, N-heptyl-4-methyl-1,2-dithiolane-4-carboxamide], in the assay on HaCaT cells, the activity at 30 µM was determined as 99% and the inhibition at 30 µM is 98%.

For `COC(=O)C(CCSC)NC(=O)C1(C)CSSC1` (stereo not shown) [Compound 12, methyl 2-{[(4-methyl-1,2-dithiolan-4-yl)carbonyl]amino}-4-(methylsulfanyl)butanoate], in the assay with HaCaT cells, the activity at 30 µM stood at 78% and the inhibition at 30 µM turned out to be 61%.

Turning to `CC(=O)NCCSC(=O)C1(C)CSSC1` [Compound 13, S-[2-(acetylamino)ethyl]4-methyl-1,2-dithiolane-4-carbothioate], in the assay on HaCaT cells, the activity at 30 µM was 71% and the inhibition at 30 µM came out at 50%.

For the compound `CC1(C(=O)NCCO)CSSC1` [Compound 14, N-(2-hydroxyethyl)-4-methyl-1,2-dithiolane-4-carboxamide], in the assay on HaCaT cells, the activity at 30 µM amounted to 78% and the inhibition at 30 µM amounted to 61%.

On to `CC1(C(=O)O)CSS(=O)(=O)C1` (stereo not shown) [Compound 24, 4-methyl-1,2-dithiolane-4-carboxylic acid 1,1-dioxide], for which, in the assay with HaCaT cells, the activity at 30 µM is 91% and the inhibition at 30 µM worked out at 63%.

With `CC1(C(N)=O)CS[S+]([O-])C1` (stereo not shown) [Compound 26, 4-methyl-1,2-dithiolane-4-carboxamide 1-oxide], in the assay with HaCaT cells, the activity at 30 µM was 117% and the inhibition at 30 µM came out at 169%.

Take `CC1(C(N)=O)CSS(=O)(=O)C1` (stereo not shown) [Compound 27, 4-methyl-1,2-dithiolane-4-carboxamide 1,1-dioxide]: in the assay with HaCaT cells, the activity at 30 µM stood at 100% and the inhibition at 30 µM was found to be 101%.

Take `O=C(O)CCCCC1CCSS1` (stereo not shown) [lipoic acid, 1,2-dithiacyclopentane-3-valeric acid, reference compound]: the activity at 100 µM in the assay on HaCaT cells was determined as 63%. For the same compound, in the assay on HaCaT cells, the inhibition at 100 µM stood at 13%. The “protection against the UV-DL-induced depletion of GSH” value with HaCaT cells (pretreatment at 100 μM) is “about 10%”; in the assay with HaCaT cells (pretreatment at 500 μM), “about 83%”; in the assay with HaCaT cells (pretreatment for 24 hours at 1 mM) it was “approximately 100%”.

Values taken from patent US8530511B2, “Administration of dithiolane compounds for photoprotecting the skin” (L'Oreal, priority 2008, dated 2013).
